For this assay, the target named is T1, USP25 (USP25-His6, Boston Biochem E-546) (Homo sapiens, UniProt Q9UHP3).
T1 construct: His6; purchased Boston Biochem E-546
T1 sequence (Q9UHP3 1-1055): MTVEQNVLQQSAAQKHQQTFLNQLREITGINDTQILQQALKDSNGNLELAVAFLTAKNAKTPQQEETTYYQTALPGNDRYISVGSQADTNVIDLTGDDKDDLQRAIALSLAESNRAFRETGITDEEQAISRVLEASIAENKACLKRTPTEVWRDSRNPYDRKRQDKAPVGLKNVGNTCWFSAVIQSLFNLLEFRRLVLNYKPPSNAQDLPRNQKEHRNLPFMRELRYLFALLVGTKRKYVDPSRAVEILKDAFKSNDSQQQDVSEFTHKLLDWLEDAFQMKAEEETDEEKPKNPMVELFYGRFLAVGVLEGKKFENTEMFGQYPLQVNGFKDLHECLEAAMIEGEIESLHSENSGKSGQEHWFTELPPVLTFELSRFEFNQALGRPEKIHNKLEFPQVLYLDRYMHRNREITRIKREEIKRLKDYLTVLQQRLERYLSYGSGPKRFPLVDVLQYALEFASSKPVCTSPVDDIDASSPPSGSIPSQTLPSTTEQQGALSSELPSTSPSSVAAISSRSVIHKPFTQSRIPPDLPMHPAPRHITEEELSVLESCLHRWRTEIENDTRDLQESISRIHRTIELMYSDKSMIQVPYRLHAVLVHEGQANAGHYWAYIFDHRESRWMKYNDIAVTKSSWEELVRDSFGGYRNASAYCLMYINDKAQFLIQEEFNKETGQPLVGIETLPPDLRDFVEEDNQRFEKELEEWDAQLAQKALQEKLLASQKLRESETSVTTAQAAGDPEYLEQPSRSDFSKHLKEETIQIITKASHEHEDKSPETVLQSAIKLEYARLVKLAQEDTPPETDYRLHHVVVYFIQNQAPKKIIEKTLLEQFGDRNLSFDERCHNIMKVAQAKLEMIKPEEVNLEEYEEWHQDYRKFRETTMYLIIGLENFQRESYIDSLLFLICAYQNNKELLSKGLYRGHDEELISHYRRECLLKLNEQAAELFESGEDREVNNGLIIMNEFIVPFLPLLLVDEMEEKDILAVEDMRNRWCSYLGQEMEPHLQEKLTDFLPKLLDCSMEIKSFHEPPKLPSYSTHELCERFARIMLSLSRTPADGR
As to the kind of experiment: Ubiquitin-Rhodamine 110 Assay for USP25 Activity, Example A-2. Format: biochemical. As to conditions: Ubiquitin-Rhodamine 110 assay, Example A-2; read-out: USP25 A-2 IC50 range. The method, boiled down:
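Cleavage of ubiquitin-rhodamine 110 (25 nM, well below Km) by His-tagged USP25 at 75 pM is measured fluorimetrically after 45 min at room temperature and acid quench. Inhibitors are preincubated with enzyme for 30 minutes. IC50 values come from four-parameter logistic curve fitting.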
For `CO[C@H]1CN(c2cc(F)c3c(c2)CC[C@@H](NC(=O)c2sc4nc(C)ccc4c2N)C3)C[C@@H]1N` [Example 137, 3-amino-N-[(2R)-6-[(3S,4S)-3-amino-4-methoxypyrrolidin-1-yl]-8-fluoro-1,2,3,4-tetrahydronaphthalen-2-yl]-6-methylthieno[2,3-b]pyridine-2-carboxamide], the IC50 was more than 2000 nM.

As to `CO[C@H]1CN(c2ccc3c(c2)OC[C@H](NC(=O)c2sc4nc(C)sc4c2N)C3)C[C@H]1N` [Example 150], the IC50 lay within 200 to 2000 nM.

For the compound `Cc1ccc2c(N)c(C(=O)N[C@H]3COc4cc(C5CC6COCC(C5)N6)ccc4C3)sc2n1` (stereo partly drawn) [Example 125, 3-amino-6-methyl-N-[(3R)-7-{3-oxa-9-azabicyclo[3.3.1]nonan-7-yl}-3,4-dihydro-2H-1-benzopyran-3-yl]thieno[2,3-b]pyridine-2-carboxamide], the IC50 was 50 to 200 nM.

For the compound `Cc1ccc2c(N)c(C(=O)N[C@H]3COc4c(ccc(N5CC6CCC(C5)N6)c4F)C3)sc2n1` [Example 103, 3-amino-N-[(3R)-7-{3,8-diazabicyclo[3.2.1]octan-3-yl}-8-fluoro-3,4-dihydro-2H-1-benzopyran-3-yl]-6-methylthieno[2,3-b]pyridine-2-carboxamide], the IC50 was in the range of 50 to 200 nM.

`Cc1ccc2c(N)c(C(=O)N[C@H]3COc4cc(N5CC6CCC(C5)N6)c(C#N)c(F)c4C3)sc2n1` [Example 126, 3-amino-N-[(3R)-6-cyano-7-{3,8-diazabicyclo[3.2.1]octan-3-yl}-5-fluoro-3,4-dihydro-2H-1-benzopyran-3-yl]-6-methylthieno[2,3-b]pyridine-2-carboxamide]: the IC50 lay within 1 to 50 nM.

Consider `CO[C@@H]1CN(c2ccc3c(c2)OC[C@H](NC(=O)c2sc4nc(C)sc4c2N)C3)C[C@@H]1N` [Example 149, 6-amino-N-[(3R)-7-[(3S,4R)-3-amino-4-methoxypyrrolidin-1-yl]-3,4-dihydro-2H-1-benzopyran-3-yl]-2-methylthieno[2,3-d][1,3]thiazole-5-carboxamide], for which the IC50 lay in the range of 200 to 2000 nM.

By IC50 is commonly meant the concentration at which inhibition is half-maximal.

The values above are taken from patent US11524966B1 (Valo Early Discovery, Inc., priority 2017, dated 2022).
